Data taken from patent publication US7018613B2, “Preparations for evaluating eliminative ability of stomach” (Otsuka Pharmaceutical Co., Ltd., priority 2000, dated 2006).

Experiment: exhalation test (13CO2/12CO2, carbon dioxide gas Δ value) after oral administration to beagle dogs

excretion of labeled carbon dioxide gas from the body, in words (male beagle dogs without propantheline, n=4, FIG. 4) | time of maximum of the carbon dioxide gas Δ value, in words (male beagle dogs, n=4, control test, 100 mg NaH13CO3, FIG. 4) | Compound | excretion of labeled carbon dioxide gas in the exhalation in the group receiving propantheline versus untreated group (beagle dogs given the capsule of Example 8 granules after propantheline, n=4)
 |  | CC(C)[N+](C)(CCOC(=O)C1c2ccccc2Oc2ccccc21)C(C)C [propantheline] | slow compared to that seen in the beagle dogs of the untreated group
rapidly excreted from the body | immediately after administration | O=C([O-])O.[Na+] [sodium hydrogencarbonate solution, sodium hydrogencarbonate] | 
